From patent US20240216401A1, “COMBINATION THERAPY BY USING AKR1C3-ACTIVATED COMPOUND WITH IMMUNE CHECKPOINT INHIBITOR” (OBI Pharma, Inc., priority 2021, published 2024)
Values joined by “and” are separate entries in the source; they are usually repeats but may differ in a detail not shown here. Identical values can stand only once.

Columns and labels:
[1] = test system: preclinical models of T-ALL; settings: in vitro and in vivo; references 25, 26; cited from earlier work
[2] = test system: T helper (TH) cells (CD45^+CD4^+ T cells) in tumor-infiltrating lymphocytes; experiment: Example 2: flow cytometry, percentage of TH cells in TILs; format: in vivo, Mus musculus
Method: Mice were sacrificed by CO2 euthanasia at the end of the study duration, and the connective tissue around tumor was resected. The tumor samples were then weighed and cut equally into three sections if the tumor weight over 400 mg. The tumor tissue was prepared for the isolation of tumor-infiltrating lymphocytes (TILs). The rest of one section was fixed in 10% formaldehyde and embedded in paraffin; the other was stored at a temperature below −70° C.
The tumor samples were dissected into smaller fragments using scalpels and then digested with a cocktail of collagenase, DNase I, and Hyaluronidase (Collagenase #C5138, DNase I #D5025, Hyaluronidase #H6254, SigmaAldrich) for at least 2 hours.
Cells were stained with the fluorescently conjugated surface antibodies and incubated for 30 minutes at 4° C., and then resuspended in staining buffer for flow cytometric analysis. Flow cytometry was done using a Navios EX Flow Cytometer (Beckman Coulter). Data were analyzed using the Kaluza Analysis Software (Beckman Coulter).

[3] = G2: OBI-3424 (0.3 mg/kg), group Mean
[4] = G2: OBI-3424 (0.3 mg/kg), individual animals, 0.3 mg/kg
[5] = G3: OBI-3424 (1 mg/kg), group Mean
[6] = G3: OBI-3424 (1 mg/kg), individual animals, 1 mg/kg

C[C@H](OP(=O)(N1CC1)N1CC1)c1ccc([N+](=O)[O-])c(Oc2cccc(C(=O)N(C)C)c2)c1 [OBI-3424, (S)-1-(3-(3-N,N-dimethylaminocarbonyl)phenoxyl-4-mtrophenyl)-1-ethyl-N,N′-bis(ethylene)phosphoramidate]
efficacy against preclinical models of T-ALL (in words) [1]: potent efficacy | TH cells (CD45^+CD4^+ T cells) in TILs ([2]; Example 2, mean±SEM, OBI-3424 1 mg/kg, alone (G3) or with anti-hPD-1 (G6)): 25.05±2.08% | CD25^+ TH cells (CD45^+CD4^+ CD25^+) Total % [2, 3]: 2.46% | CD25^+ TH cells (CD45^+CD4^+CD25^+) Cell count (×10^5) [2, 3]: 4.93 ×10^5 | CD25^+ TH cells (CD45^+CD4^+CD25^+) TH Gated % [2, 3]: 18.22% | CD69^+ TH cells (CD45^+CD4^+CD69^+) Cell count (×10^5) [2, 3]: 13.89 ×10^5 | CD69^+ TH cells (CD45^+CD4^+CD69^+) TH Gated % [2, 3]: 60.13% | CD69^+ TH cells (CD45^+CD4^+CD69^+) Total % [2, 3]: 8.46% | Foxp3^+ Treg cells (CD45^+CD4^+CD25^+Foxp3^+) Cell count (×10^5) [2, 3]: 0.24 ×10^5 | Foxp3^+ Treg cells (CD45^+CD4^+CD25^+Foxp3^+) TH Gated % [2, 3]: 5.27% | Foxp3^+ Treg cells (CD45^+CD4^+CD25^+Foxp3^+) Total % [2, 3]: 0.12% | PD-1^+ TH cells (CD45^+CD4^+ PD-1^+) Cell count (×10^5) [2, 3]: 20.36 ×10^5 | PD-1^+ TH cells (CD45^+CD4^+ PD-1^+) TH Gated % [2, 3]: 93.96% | PD-1^+ TH cells (CD45^+CD4^+ PD-1^+) Total % [2, 3]: 12.11% | TH cells (CD45^+CD4^+) CD45^+ Gated % [2, 3]: 33.51% | TH cells (CD45^+CD4^+) Cell count (×10^5) [2, 3]: 21.50 ×10^5 | TH cells (CD45^+CD4^+) Total % [2, 3]: 12.88% | CD25^+ TH cells (CD45^+CD4^+ CD25^+) Total % [2, 4]: 1.65% and 2.12% and 4.23% and 2.84% | CD25^+ TH cells (CD45^+CD4^+CD25^+) Cell count (×10^5) [2, 4]: 4.34 ×10^5 and 3.39 ×10^5 and 8.91 ×10^5 and 0.45 ×10^5 and 10.43 ×10^5 and 2.06 ×10^5 | CD25^+ TH cells (CD45^+CD4^+CD25^+) TH Gated % [2, 4]: 18.38% and 17.49% and 18.21% and 10.15% and 30.45% and 14.61% | CD69^+ TH cells (CD45^+CD4^+CD69^+) Cell count (×10^5) [2, 4]: 14.86 ×10^5 and 13.89 ×10^5 and 28.08 ×10^5 and 3.35 ×10^5 and 16.93 ×10^5 and 6.24 ×10^5 | CD69^+ TH cells (CD45^+CD4^+CD69^+) TH Gated % [2, 4]: 63.07% and 71.55% and 57.32% and 49.45% and 44.32% | CD69^+ TH cells (CD45^+CD4^+CD69^+) Total % [2, 4]: 7.64% and 6.79% and 5.20% and 15.65% and 6.87% and 8.60% | Foxp3^+ Treg cells (CD45^+CD4^+CD25^+Foxp3^+) Cell count (×10^5) [2, 4]: 0.21 ×10^5 and 0.27 ×10^5 and 0.43 ×10^5 and 0.03 ×10^5 and 0.39 ×10^5 and 0.08 ×10^5 | Foxp3^+ Treg cells (CD45^+CD4^+CD25^+Foxp3^+) TH Gated % [2, 4]: 5.03% and 7.95% and 5.08% and 6.05% and 3.69% and 3.81% | Foxp3^+ Treg cells (CD45^+CD4^+CD25^+Foxp3^+) Total % [2, 4]: 0.11% (2×) and 0.13% (2×) and 0.08% and 0.16% | PD-1^+ TH cells (CD45^+CD4^+ PD-1^+) Cell count (×10^5) [2, 4]: 21.12 ×10^5 and 16.11 ×10^5 and 38.56 ×10^5 and 4.30 ×10^5 and 32.19 ×10^5 and 9.90 ×10^5 | PD-1^+ TH cells (CD45^+CD4^+ PD-1^+) TH Gated % [2, 4]: 98.48% and 81.16% and 94.89% and 90.86% and 99.60% and 98.76% | PD-1^+ TH cells (CD45^+CD4^+ PD-1^+) Total % [2, 4]: 10.86% and 7.88% and 7.14% and 20.09% and 13.06% and 13.65% | TH cells (CD45^+CD4^+) CD45^+ Gated % [2, 4]: 59.01% and 26.17% and 17.42% and 32.52% and 29.44% and 36.50% | TH cells (CD45^+CD4^+) Cell count (×10^5) [2, 4]: 21.45 ×10^5 and 19.84 ×10^5 and 40.61 ×10^5 and 4.73 ×10^5 and 32.34 ×10^5 and 10.02 ×10^5 | TH cells (CD45^+CD4^+) Total % [2, 4]: 11.03% and 9.70% and 7.52% and 22.11% and 13.12% and 13.82% | CD25^+ TH cells (CD45^+CD4^+ CD25^+) Total % [2, 5]: 3.32% | CD25^+ TH cells (CD45^+CD4^+CD25^+) Cell count (×10^5) [2, 5]: 2.83 ×10^5 | CD25^+ TH cells (CD45^+CD4^+CD25^+) TH Gated % [2, 5]: 13.39% | CD69^+ TH cells (CD45^+CD4^+CD69^+) Cell count (×10^5) [2, 5]: 12.24 ×10^5 | CD69^+ TH cells (CD45^+CD4^+CD69^+) TH Gated % [2, 5]: 61.30% | CD69^+ TH cells (CD45^+CD4^+CD69^+) Total % [2, 5]: 15.55% | Foxp3^+ Treg cells (CD45^+CD4^+CD25^+Foxp3^+) Cell count (×10^5) [2, 5]: 0.07 ×10^5 | Foxp3^+ Treg cells (CD45^+CD4^+CD25^+Foxp3^+) TH Gated % [2, 5]: 3.04% | Foxp3^+ Treg cells (CD45^+CD4^+CD25^+Foxp3^+) Total % [2, 5]: 0.09% | PD-1^+ TH cells (CD45^+CD4^+ PD-1^+) Cell count (×10^5) [2, 5]: 19.54 ×10^5 | PD-1^+ TH cells (CD45^+CD4^+ PD-1^+) TH Gated % [2, 5]: 97.01% | PD-1^+ TH cells (CD45^+CD4^+ PD-1^+) Total % [2, 5]: 24.35% | TH cells (CD45^+CD4^+) CD45^+ Gated % [2, 5]: 41.85% | TH cells (CD45^+CD4^+) Cell count (×10^5) [2, 5]: 20.13 ×10^5 | TH cells (CD45^+CD4^+) Total % [2, 5]: 25.05% | CD25^+ TH cells (CD45^+CD4^+ CD25^+) Total % [2, 6]: 1.46% and 2.88% and 2.69% and 5.06% and 4.55% and 3.26% | CD25^+ TH cells (CD45^+CD4^+CD25^+) Cell count (×10^5) [2, 6]: 0.42 ×10^5 and 3.63 ×10^5 and 1.90 ×10^5 and 5.00 ×10^5 and 3.39 ×10^5 and 2.64 ×10^5 | CD25^+ TH cells (CD45^+CD4^+CD25^+) TH Gated % [2, 6]: 5.51% and 11.47% and 14.05% and 20.81% and 18.53% and 9.97% | CD69^+ TH cells (CD45^+CD4^+CD69^+) Cell count (×10^5) [2, 6]: 4.74 ×10^5 and 19.21 ×10^5 and 9.19 ×10^5 and 10.91 ×10^5 and 12.59 ×10^5 and 16.82 ×10^5 | CD69^+ TH cells (CD45^+CD4^+CD69^+) TH Gated % [2, 6]: 61.50% and 60.62% and 67.91% and 45.46% and 68.87% and 63.43% | CD69^+ TH cells (CD45^+CD4^+CD69^+) Total % [2, 6]: 16.35% and 15.22% and 13.01% and 11.04% and 16.92% and 20.76% | Foxp3^+ Treg cells (CD45^+CD4^+CD25^+Foxp3^+) Cell count (×10^5) [2, 6]: 0.02 ×10^5 and 0.08 ×10^5 and 0.07 ×10^5 and 0.12 ×10^5 and 0.04 ×10^5 and 0.11 ×10^5 | Foxp3^+ Treg cells (CD45^+CD4^+CD25^+Foxp3^+) TH Gated % [2, 6]: 4.64% and 2.22% and 3.57% and 2.45% and 1.41% and 3.92%
